Source: ChEMBL document CHEMBL1275370, “The binding of β-d-glucopyranosyl-thiosemicarbazone derivatives to glycogen phosphorylase: A new class of inhibitors” (Bioorg Med Chem, 2010)

biological target: T1, Glycogen phosphorylase, muscle form (Oryctolagus cuniculus, UniProt P00489)
T1 sequence (P00489 whole entry): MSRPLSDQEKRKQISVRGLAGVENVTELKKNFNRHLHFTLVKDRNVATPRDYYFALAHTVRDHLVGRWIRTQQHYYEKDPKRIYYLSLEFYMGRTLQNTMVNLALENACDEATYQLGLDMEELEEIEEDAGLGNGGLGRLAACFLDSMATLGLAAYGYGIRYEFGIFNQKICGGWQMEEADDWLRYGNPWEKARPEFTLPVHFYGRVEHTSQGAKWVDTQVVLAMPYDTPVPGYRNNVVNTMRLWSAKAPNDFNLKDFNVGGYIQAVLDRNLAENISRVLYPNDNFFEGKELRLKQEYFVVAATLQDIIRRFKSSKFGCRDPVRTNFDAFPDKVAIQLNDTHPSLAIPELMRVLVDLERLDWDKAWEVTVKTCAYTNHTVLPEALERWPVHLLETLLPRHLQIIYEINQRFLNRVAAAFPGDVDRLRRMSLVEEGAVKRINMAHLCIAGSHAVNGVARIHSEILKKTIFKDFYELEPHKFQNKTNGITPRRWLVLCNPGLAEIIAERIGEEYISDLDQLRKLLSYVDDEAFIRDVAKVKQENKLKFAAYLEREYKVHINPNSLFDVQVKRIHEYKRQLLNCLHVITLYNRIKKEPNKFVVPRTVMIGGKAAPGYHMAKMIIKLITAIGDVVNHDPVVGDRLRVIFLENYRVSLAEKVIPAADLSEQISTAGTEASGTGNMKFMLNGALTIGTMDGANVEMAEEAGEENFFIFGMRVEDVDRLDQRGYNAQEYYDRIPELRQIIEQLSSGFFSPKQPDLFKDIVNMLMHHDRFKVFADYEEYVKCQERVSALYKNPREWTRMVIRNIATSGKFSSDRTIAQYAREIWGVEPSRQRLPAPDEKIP
Description: Inhibition of rabbit skeletal muscle glycogen phosphorylase b

IC50 | Compound
25.7 µM | CC[C@H]1O[C@@H](NC(=S)N/N=C/c2ccc([N+](=O)[O-])cc2)[C@H](O)[C@@H](O)[C@@H]1O
93.2 µM | CC[C@H]1O[C@@H](NC(=S)N/N=C/c2ccc(Br)cc2)[C@H](O)[C@@H](O)[C@@H]1O
340 µM | CC[C@H]1O[C@@H](NC(=S)N/N=C/c2ccc(O)cc2)[C@H](O)[C@@H](O)[C@@H]1O
406 µM | CC[C@H]1O[C@@H](NC(=S)N/N=C/c2ccc(OC)cc2)[C@H](O)[C@@H](O)[C@@H]1O
192 µM | CC[C@H]1O[C@@H](NC(=S)N/N=C/c2ccc(C)cc2)[C@H](O)[C@@H](O)[C@@H]1O
524 µM | CC[C@H]1O[C@@H](NC(=S)N/N=C/c2ccc(C(F)(F)F)cc2)[C@H](O)[C@@H](O)[C@@H]1O
200 µM | CC[C@H]1O[C@@H](NC(=S)N/N=C/c2ccncc2)[C@H](O)[C@@H](O)[C@@H]1O
23.2 µM | CC[C@H]1O[C@@H](NC(=S)N/N=C/c2cccc(Cl)c2)[C@H](O)[C@@H](O)[C@@H]1O
180 µM | CC[C@H]1O[C@@H](NC(=S)N/N=C/c2cccc(O)c2)[C@H](O)[C@@H](O)[C@@H]1O
484 µM | CC[C@H]1O[C@@H](NC(=S)N/N=C/c2ccccc2[N+](=O)[O-])[C@H](O)[C@@H](O)[C@@H]1O
370 µM | CC[C@H]1O[C@@H](NC(=S)N/N=C/c2ccccc2Cl)[C@H](O)[C@@H](O)[C@@H]1O
26.6 µM | CC[C@H]1O[C@@H](NC(=S)N/N=C/c2ccccc2O)[C@H](O)[C@@H](O)[C@@H]1O
